Results reported in PubChem BioAssay (NCI).
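Following 48 hours of exposure in 96-well plates, responses at five concentrations were used to interpolate endpoints linearly. GI50 marks 50% less growth. The concentration for full growth arrest is given as TGI.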

What was measured:
Experiment in all cases: NCI tumour cell line growth inhibition, 48 h; in the data active = GI50 below about 0.43 µM; inactive = the rest
SW-620 colon = system: SW-620 colon
MCF7 breast = system: MCF7 breast
HCC-2998 colon = system: HCC-2998 colon
HOP-62 NSCLC = system: HOP-62 NSCLC
NCI-H522 lung = system: NCI-H522 lung
MALME-3M melanoma = system: MALME-3M melanoma
MDA-MB-435 = system: MDA-MB-435
HS 578T breast = system: HS 578T breast
K-562 leukemia = system: K-562 leukemia
RXF 393 renal = system: RXF 393 renal
LOX IMVI melanoma = system: LOX IMVI melanoma
SN12C renal = system: SN12C renal
CCRF-CEM leukemia = system: CCRF-CEM leukemia
SF-268 CNS = system: SF-268 CNS
786-0 renal = system: 786-0 renal
TK-10 renal = system: TK-10 renal
SF-295 CNS = system: SF-295 CNS
HL-60(TB) leukemia = system: HL-60(TB) leukemia
NCI-H23 lung = system: NCI-H23 lung
HT29 colon = system: HT29 colon
A549 NSCLC = system: A549 NSCLC
SNB-75 CNS = system: SNB-75 CNS
NCI-H226 lung = system: NCI-H226 lung
SK-MEL-5 melanoma = system: SK-MEL-5 melanoma
KM12 colon = system: KM12 colon
SR leukemia = system: SR leukemia
NCI/ADR-RES ovarian = system: NCI/ADR-RES ovarian
SK-MEL-2 melanoma = system: SK-MEL-2 melanoma
NCI-H460 lung = system: NCI-H460 lung
SK-MEL-28 melanoma = system: SK-MEL-28 melanoma
HCT-15 colon = system: HCT-15 colon
MOLT-4 leukemia = system: MOLT-4 leukemia
OVCAR-5 ovarian = system: OVCAR-5 ovarian
UACC-257 melanoma = system: UACC-257 melanoma
EKVX NSCLC = system: EKVX NSCLC
ACHN renal = system: ACHN renal
SF-539 CNS = system: SF-539 CNS
UO-31 renal = system: UO-31 renal
OVCAR-4 ovarian = system: OVCAR-4 ovarian
OVCAR-8 ovarian = system: OVCAR-8 ovarian
IGROV1 ovarian = system: IGROV1 ovarian
PC-3 prostate = system: PC-3 prostate
RPMI-8226 leukemia = system: RPMI-8226 leukemia
BT-549 breast = system: BT-549 breast
M14 melanoma = system: M14 melanoma
SK-OV-3 ovarian = system: SK-OV-3 ovarian
U251 CNS = system: U251 CNS
OVCAR-3 ovarian = system: OVCAR-3 ovarian
UACC-62 melanoma = system: UACC-62 melanoma
SNB-19 CNS = system: SNB-19 CNS
CAKI-1 renal = system: CAKI-1 renal
MDA-MB-231 breast = system: MDA-MB-231 breast
DU-145 prostate = system: DU-145 prostate
COLO 205 colon = system: COLO 205 colon
A498 renal = system: A498 renal
HCT-116 colon = system: HCT-116 colon

OCCCC(O)(c1ccccc1)c1ccccc1
> 100 µM: TGI (SW-620 colon) | TGI (MCF7 breast) | TGI (HCC-2998 colon) | TGI (HOP-62 NSCLC) | TGI (NCI-H522 lung) | TGI (MALME-3M melanoma) | TGI (MDA-MB-435) | TGI (HS 578T breast) | TGI (K-562 leukemia) | TGI (RXF 393 renal) | TGI (LOX IMVI melanoma) | TGI (SN12C renal) | TGI (CCRF-CEM leukemia) | TGI (SF-268 CNS) | TGI (786-0 renal) | TGI (TK-10 renal) | TGI (SF-295 CNS) | TGI (HL-60(TB) leukemia) | TGI (NCI-H23 lung) | TGI (HT29 colon) | TGI (A549 NSCLC) | TGI (SNB-75 CNS) | TGI (NCI-H226 lung) | TGI (SK-MEL-5 melanoma) | TGI (KM12 colon) | TGI (SR leukemia) | TGI (NCI/ADR-RES ovarian) | TGI (SK-MEL-2 melanoma) | TGI (NCI-H460 lung) | TGI (SK-MEL-28 melanoma) | TGI (HCT-15 colon) | TGI (MOLT-4 leukemia) | TGI (OVCAR-5 ovarian) | TGI (UACC-257 melanoma) | TGI (EKVX NSCLC) | TGI (ACHN renal) | TGI (SF-539 CNS) | TGI (UO-31 renal) | TGI (OVCAR-4 ovarian) | TGI (OVCAR-8 ovarian) | TGI (IGROV1 ovarian) | TGI (PC-3 prostate) | TGI (RPMI-8226 leukemia) | TGI (BT-549 breast) | TGI (M14 melanoma) | TGI (SK-OV-3 ovarian) | TGI (U251 CNS) | TGI (OVCAR-3 ovarian) | TGI (UACC-62 melanoma) | TGI (SNB-19 CNS)

O=C(c1ccco1)c1nc2ccc(Cl)cc2[n+]([O-])c1C(F)(F)F
62 µM: TGI (RXF 393 renal)
inactive: GI50 (SW-620 colon) > 100 µM | GI50 (MCF7 breast) 30.4 µM | GI50 (CAKI-1 renal) 95.6 µM | GI50 (HCC-2998 colon) 88.4 µM | GI50 (HOP-62 NSCLC) 91.3 µM | GI50 (NCI-H522 lung) > 100 µM | GI50 (MDA-MB-231 breast) 59.1 µM | GI50 (MALME-3M melanoma) > 100 µM | GI50 (MDA-MB-435) > 100 µM | GI50 (HS 578T breast) > 100 µM | GI50 (K-562 leukemia) > 100 µM | GI50 (RXF 393 renal) 27.4 µM | GI50 (LOX IMVI melanoma) > 100 µM | GI50 (SN12C renal) > 100 µM | GI50 (CCRF-CEM leukemia) 39.4 µM | GI50 (SF-268 CNS) 50.1 µM | GI50 (786-0 renal) > 100 µM | GI50 (TK-10 renal) 62.7 µM | GI50 (SF-295 CNS) > 100 µM | GI50 (HL-60(TB) leukemia) > 100 µM | GI50 (NCI-H23 lung) > 100 µM | GI50 (HT29 colon) > 100 µM | GI50 (A549 NSCLC) > 100 µM | GI50 (SNB-75 CNS) 52.8 µM | GI50 (NCI-H226 lung) > 100 µM | GI50 (DU-145 prostate) > 100 µM | GI50 (SK-MEL-5 melanoma) 90.3 µM | GI50 (KM12 colon) > 100 µM | GI50 (SR leukemia) 66.3 µM | GI50 (NCI/ADR-RES ovarian) > 100 µM | GI50 (COLO 205 colon) > 100 µM | GI50 (SK-MEL-2 melanoma) > 100 µM | GI50 (NCI-H460 lung) 91.4 µM | GI50 (SK-MEL-28 melanoma) > 100 µM | GI50 (HCT-15 colon) > 100 µM | GI50 (MOLT-4 leukemia) > 100 µM | GI50 (OVCAR-5 ovarian) > 100 µM | GI50 (UACC-257 melanoma) > 100 µM | GI50 (A498 renal) > 100 µM | GI50 (EKVX NSCLC) 96.2 µM | GI50 (ACHN renal) > 100 µM | GI50 (SF-539 CNS) > 100 µM | GI50 (HCT-116 colon) > 100 µM | GI50 (UO-31 renal) > 100 µM | GI50 (OVCAR-4 ovarian) > 100 µM | GI50 (OVCAR-8 ovarian) 64.9 µM | GI50 (IGROV1 ovarian) > 100 µM | GI50 (PC-3 prostate) 37.1 µM | GI50 (RPMI-8226 leukemia) 31.1 µM | GI50 (BT-549 breast) > 100 µM | GI50 (M14 melanoma) > 100 µM | GI50 (SK-OV-3 ovarian) > 100 µM | GI50 (U251 CNS) 69.8 µM | GI50 (OVCAR-3 ovarian) > 100 µM | GI50 (UACC-62 melanoma) > 100 µM | GI50 (SNB-19 CNS) 72.6 µM
> 100 µM: TGI (SW-620 colon) | TGI (MCF7 breast) | TGI (CAKI-1 renal) | TGI (HCC-2998 colon) | TGI (HOP-62 NSCLC) | TGI (NCI-H522 lung) | TGI (MDA-MB-231 breast) | TGI (MALME-3M melanoma) | TGI (MDA-MB-435) | TGI (HS 578T breast) | TGI (K-562 leukemia) | TGI (LOX IMVI melanoma) | TGI (SN12C renal) | TGI (CCRF-CEM leukemia) | TGI (SF-268 CNS) | TGI (786-0 renal) | TGI (TK-10 renal) | TGI (SF-295 CNS) | TGI (HL-60(TB) leukemia) | TGI (NCI-H23 lung) | TGI (HT29 colon) | TGI (A549 NSCLC) | TGI (SNB-75 CNS) | TGI (NCI-H226 lung) | TGI (DU-145 prostate) | TGI (SK-MEL-5 melanoma) | TGI (KM12 colon) | TGI (SR leukemia) | TGI (NCI/ADR-RES ovarian) | TGI (COLO 205 colon) | TGI (SK-MEL-2 melanoma) | TGI (NCI-H460 lung) | TGI (SK-MEL-28 melanoma) | TGI (HCT-15 colon) | TGI (MOLT-4 leukemia) | TGI (OVCAR-5 ovarian) | TGI (UACC-257 melanoma) | TGI (A498 renal) | TGI (EKVX NSCLC) | TGI (ACHN renal) | TGI (SF-539 CNS) | TGI (HCT-116 colon) | TGI (UO-31 renal) | TGI (OVCAR-4 ovarian) | TGI (OVCAR-8 ovarian) | TGI (IGROV1 ovarian) | TGI (PC-3 prostate) | TGI (RPMI-8226 leukemia) | TGI (BT-549 breast) | TGI (M14 melanoma) | TGI (SK-OV-3 ovarian) | TGI (U251 CNS) | TGI (OVCAR-3 ovarian) | TGI (UACC-62 melanoma) | TGI (SNB-19 CNS)

COC1=CC(=O)N(C(=O)C2CSC(C(CO)NC(=O)c3csc(/C=N/O)n3)=N2)C1 (stereo unspecified)
91 µM: TGI (SNB-75 CNS)
> 100 µM: TGI (SW-620 colon) | TGI (MCF7 breast) | TGI (CAKI-1 renal) | TGI (HOP-62 NSCLC) | TGI (MDA-MB-231 breast) | TGI (MALME-3M melanoma) | TGI (MDA-MB-435) | TGI (HS 578T breast) | TGI (K-562 leukemia) | TGI (LOX IMVI melanoma) | TGI (SN12C renal) | TGI (CCRF-CEM leukemia) | TGI (SF-268 CNS) | TGI (786-0 renal) | TGI (TK-10 renal) | TGI (SF-295 CNS) | TGI (HL-60(TB) leukemia) | TGI (NCI-H23 lung) | TGI (HT29 colon) | TGI (NCI-H226 lung) | TGI (DU-145 prostate) | TGI (SK-MEL-5 melanoma) | TGI (KM12 colon) | TGI (SR leukemia) | TGI (NCI/ADR-RES ovarian) | TGI (COLO 205 colon) | TGI (SK-MEL-2 melanoma) | TGI (NCI-H460 lung) | TGI (SK-MEL-28 melanoma) | TGI (HCT-15 colon) | TGI (MOLT-4 leukemia) | TGI (OVCAR-5 ovarian) | TGI (UACC-257 melanoma) | TGI (A498 renal) | TGI (EKVX NSCLC) | TGI (ACHN renal) | TGI (SF-539 CNS) | TGI (HCT-116 colon) | TGI (OVCAR-8 ovarian) | TGI (IGROV1 ovarian) | TGI (PC-3 prostate) | TGI (RPMI-8226 leukemia) | TGI (BT-549 breast) | TGI (M14 melanoma) | TGI (SK-OV-3 ovarian) | TGI (OVCAR-3 ovarian) | TGI (UACC-62 melanoma) | TGI (SNB-19 CNS)
